Measured values reported in patent publication US20250000846A1, “METHODS OF TREATMENT OR PREVENTION OF ACUTE BRAIN OR NERVE INJURIES” (Annovis Bio, Inc., priority 2015, published 2025).

Experiments:
[1] = system: IBA-1+ microglia cells in the substantia nigra; assay: Fluid percussion injury, microglial activation by diameter of IBA-1-positive cells in substantia nigra; assay type: in vivo, rats; settings: 10 mg/kg
Method: Because FPI can induce microglial activation according to Hutson et al (J. Neurotrauma, Jun. 6, 2011; PMID:21644813), whether posiphen would reverse this pathological response using quantitative measures was tested in the vehicle or posiphen tartrate treated (10 mg/kg) rats from Example 2 (part of the brain from each of the euthanized rat was stained for tyrosine hydroxylase in Example 2 and another part of the brain was stained for microglia in Example 3). Microglial activation was assessed by quantitative measure of the diameter of IBA-1-positive cells, wherein IBA-1 stands for ionized calcium adaptor binding protein.
Analysis was done on a Leica DM-LB microscope with a Ludl XYZ motorized stage and z-axis microcator (MT12, Heidenheim, Traunreut, Germany) using StereoInvestigator software
(MicroBrightField, Colchester, VT). A contour was drawn to delineate the substantia nigra under the 5× objective lens to ensure anatomical accuracy. Following delineation, the diameters of microglial cell bodies were measured in the first counting frame (100 μm) and then in every fifth counting frame at 40× magnification. This sampling frequency was chosen in order to count approximately 30-50 IBA-1+ cells in each side of the substantia nigra. The first counting frame was always positioned in the upper left corner of the contour and systematically moved from left to right and from top to bottom until the entire delineated contour region was sampled. The number of IBA-1+ microglia cells with cell diameters ranging from 1 μm to 14 μm was then normalized to the total number counted in each section and expressed as a percentage of total microglia. The results are shown in FIG. 4 (wherein the percent of IBA-1+ cells was plotted on the vertical axis, and the microglial cell diameter in um was plotted on the horizontal axis). In FIG. 4, the blank portion of each data bar represents the mean % of IB A-1+ cells with the solid or striped portion at the top of the bar representing the 95% confidence interval. In each pair of data bars in FIG. 4, the bar on the left having a solid portion at the top represents data from the vehicle-treated group, while the bar on the right having a striped portion at the top represents data from the 10 mg/kg posiphen-treated group, wherein the data of the posiphen-treated group (the bar on the right) were compared with the data of the vehicle-treated group (the bar on the left) with Bootstrapping method. The asterisks (*) at the top of some of the bars of the 10 mg/kg posiphen-treated group indicate statistical significance at p<0.05 when compared with the data of the corresponding bar of the vehicle-treated group as analyzed with the Bootstrapping method. Posiphen increased the number of resting microglia and reduced the number of activated microglia.

[2] = system: TH+ terminals in the striatum; assay: Fluid percussion injury (mild TBI), tyrosine hydroxylase (TH) immunoreactivity in striatum; assay type: in vivo, rats
Method: Rats were subjected to fluid percussion injury (FPI) or sham operation to one side of the brain using the same procedures described in Griesbach et al (Brain Research, 1288: 105-115,2009, PMCID:PMC2735616) and Hutson et al (J. Neurotrauma, Jun. 6, 2011; PMID:21644813). […] About 5 to 30 minutes after FPI or sham operation, the rats were administered with saline or posiphen tartrate at a dose of 2.5, 5 or 10 mg/kg body weight intraperitoneally and also daily for the next 28 to 32 days. At 90 minutes after the last saline or posiphen treatment, all the rats were sacrificed and sections of the brain of each of the rats were stained for tyrosine hydroxylase (TH), wherein TH stains only live cells. The amounts of TH immunoreactivity in the whole striatum of the brain slices were measured, Stereological analysis of dopaminergic (DA) neurons in the substantia nigra was conducted to determine whether posiphen would block the TBI-induced loss of DA neurons ipsilateral and contralateral to the FPI injury, using procedures described in Johnson et al (Brain Pathol. Jun. 29, 2011, doi: 10.1111/j.1750-3639.2011.00513.x) and Hoshino et al (Neurol. Med. Chir. (Tokyo), 2003 April; 43 (4): 165-74). The groups of rats included the rats with LOC above/at the median value. In FIG. 2, the sham operated group was compared with the vehicle group with two-way ANOVA, Bonferroni comparisons, wherein *p<0.05. In FIG. 3, the vehicle group was compared with the posiphen-treatment groups with one-way ANOVA, Bonferroni comparisons, wherein ^#p<0.05.

retinal neurons = assay: Retinal ischemia-reperfusion (IR), Cell Death ELISA of retina; assay type: in vivo, Sprague-Dawley rats; settings: posiphen tartrate 30 mg/kg oral gavage once per day
Source text: IR is a well-established experimental model of glaucoma as well as neuronal cell death in other retinal diseases. IR was induced on one eye of each rat while the opposite eye served as an internal control. Transient IR was induced by raising the intraocular pressure by a controlled micro-injection of saline into the anterior chamber of the eye. This approach is well established to induce large amounts of apoptotic cell death in the retina, beginning within hours after the reperfusion and continuing for several days, leading to a loss of about 50% of the retina. There would also be a dramatic and persistent increase in the permeability of the vasculature of the inner retina during this period, which may lead to edema.
Adult male Sprague-Dawley rats (approx. 450 g, n=8) were housed under normal 12 hr light/dark conditions with free access to food and water. Rats were given posiphen tartrate (30 mg/kg body weight, delivered in 15 mg/ml water) or an equivalent volume of water (vehicle) by oral gavage once per day. Gavage was performed daily over three days and then on the fourth day IR was induced in anesthetized rats (ketamine:xylazine, 100:10 mg/kg, i.p.). […] The retinas were homogenized and fractionated to obtain a cytoplasmic sample which was assessed for nucleosome content in duplicate, using the Cell Death ELISA (Roche). Data were averaged and expressed as optical density (OD). […]

[3] = system: rats subjected to mild traumatic brain injury; assay: Working memory test in Morris water maze after fluid percussion injury; assay type: in vivo
Method: The vehicle or posiphen tartrate treated rats from Example 2 were also subjected to working memory test in Morris water maze. Each of the rats was individually tested in the Morris water maze, which had 4 release points for putting the rat into the water and 4 platforms for the rat to swim to. For a total of 3 consecutive days (on one and two days before the last vehicle or posiphen treatment, and also on the day of the last vehicle or posiphen treatment before euthanasia), the rats were tested on their ability to find the 4 platform positions, using paired trials (4 paired trials per day). In each pair of the trials, the first trial was the learning trial, for the rat to learn the position of a platform, and the second trial was the memory trial for testing the memory of the rat to swim to the platform that the rat learned in the learning trial. In the learning trial, each of the rats was allowed a maximum swim time of 90 seconds to swim to the platform, and guided to the platform if needed after 90 seconds. The memory trial was started 5 seconds after the completion of the learning trial and the time for the rat to reach the platform by swimming in the maze in the memory trial was recorded. The 4 platform positions were switched after every pair of trials. The time interval between the learning trials of two consecutive pairs of trials in a day was 5 minutes. […]

CN1CC[C@]2(C)c3cc(OC(=O)Nc4ccccc4)ccc3N(C)C12 (stereo partly drawn) [posiphen, (3aR)-1,3a,8-trimethyl-1,2,3,3a,8,8a-hexahydropyrrolo[2,3-b]indol-5-yl phenylcarbamate]
brain inflammation after traumatic brain injury [1]: decreased | FPI-increased microglia activation in the substantia nigra ipsilateral to the injury ([1]; statistically significant): attenuated | number of activated microglia ([1]; versus vehicle-treated group): reduced | number of resting microglia ([1]; versus vehicle-treated group): increased | number of surviving cells in the ipsilateral area of the brain (striatum) ([2]; 2.5, 5 and 10 mg/kg i.p. daily for 28 to 32 days, all 3 doses): statistically significant increase | TH+ fluorescence intensity versus vehicle-treated group ([2]; all posiphen-treated groups (2.5, 5, 10 mg/kg), one-way ANOVA, p<0.05): significantly higher | number of nerve cells of the striatum in the contralateral part of the brain ([2]; highest dose of 10 mg/kg i.p. daily): an increase | protection of the TH+ cells in ipsilateral striatum (whole, rostral, medial and caudal) ([2]; posiphen treated animals, ipsilateral side): full protection | FPI-induced decrease in the TH+ terminals in the striatum ([2]; rat, in vivo): attenuated | number of dead nerve cells in retina of IR eye (IR-Pos) versus opposite eye (control-Pos) (retinal neurons): only slightly more | retinal neurons rescued (retinal neurons; eye subjected to transient IR (IR-Pos), N=6): 72% | latency to find the platform versus vehicle-treated group ([3]; 2.5 mg/kg and 5 mg/kg, p=0.0961): non-significant trend toward a reduction | latency to reach the platform in memory trials versus vehicle-treated group ([3]; 10 mg/kg, p=0.0335): amelioration of this deficit
